{"source": "patent US7393662B2", "about": "“Human EPO mimetic hinge core mimetibodies, compositions, methods and uses” (Centocor, Inc., priority 2004, dated 2008)", "key": {"[1]": {"tested_on": "EPO dependent UT-7/EPO cell line", "assay": "in vitro bioactivity (cell proliferation/viability, MTS) assay in EPO dependent UT-7/EPO cells", "format": "cell-based, human", "details": "for activity/potency, fold greater than the EMP-1 peptide: viability 48 hours after treatment, molar basis; for activity compared with rHuEPO: in vitro cell proliferation assay", "procedure": "The activity of EMP-Hinge core mimetibody was first tested in an in vitro bioactivity assay. For this assay, the EPO dependent UT-7/EPO cell line, derived from a patient with acute megakaryoblastic leukemia, was used (Komatsu et al., 1993, Blood, vol. 82 (2), 456-464). These cells undergo programmed cell death 48 to 72 hours after withdraw from media supplemented with rHuEPO. Cells that have been incubated in the absence of rHuEPO for 24 hours can be saved if treated with rHuEPO or an EPO agonist. EMP-Hinge core mimetibody was added to cells starved without rHuEPO and cell viability was determined 48 hours after treatment using the tetrazolium compound MTS (CellTiter 96 Aqueous One Solution, Promega) that is metabolized by living cells to yield a product with an absorbance that can be measured. […] In addition, these same cells were stimulated with EMP-Hinge core mimetibody and tyrosine phosphorylation patterns visualized by running cell lysate through a polyacrylamide gel."}, "[2]": {"tested_on": "normal mice", "assay": "in vivo effects on erythropoiesis (hematocrit) in normal mice", "details": "for duration of response (elevated hematocrit) compared with rHuEPO / maximal hematocrit / maximal response compared with rHuEPO: normal mice, equal activity units / dosed equally", "source_text": "A specific, non-limiting, example of this invention is the EMP-hinge core mimetibody construct where V is the first several N-terminal amino acids of a naturally occurring HC or LC antibody, P is a single copy of the bioactive EMP-1 peptide and L is a tandem repeat of either Gly-Ser or Gly-Gly-Gly-Ser flexible linker, H is a hinge core region and CH2 & CH3 are of the IgG1 or IgG4 isotype subclass. It is thought that this structure will constrain the EMP-1 peptide, but allow sufficient flexibility such that the dimerization of the peptides as part of the assembled homodimer is stabilized. […] This construct is efficiently secreted from cells and appears to be properly folded; overcoming problems associated with 1st generation mimetibodies.\n(§1) In vivo studies were done in normal mice to compare the half-life of EMP-Hinge core mimetibody to that of rHuEPO and to compare their effects on erythropoiesis."}, "[3]": {"assay": "serum concentration by ELISA / half-life in normal mice", "format": "in vivo", "details": "serum concentrations by ELISA", "procedure": "as §1\nThe serum concentrations of both rHuEPO and EMP-Hinge core mimetibody were measured by ELISA."}, "[4]": {"tested_on": "cells that express the EPO receptor", "assay": "complement lysis of cells that express the EPO receptor (immune effector function)", "format": "cell-based", "source_text": "It has been shown that mutation of two […] (L) residues, L234 & L235, in the IgG1 lower hinge region to alanine (A) will abrogate the ability of the immunoglobulin to mediate complement dependent cytotoxicity (CDC) and antibody dependant cellular cytotoxicity (ADCC) (Hezereh et al., 2001, J. Virol., vol. 75 (24), 12161-68). […] This may be due to the low number of receptors that are found on erythroid progenitor cells."}, "[5]": {"biological_target": "T1, EPO receptor (Homo sapiens, UniProt P19235)", "T1 sequence (P19235 25-508)": "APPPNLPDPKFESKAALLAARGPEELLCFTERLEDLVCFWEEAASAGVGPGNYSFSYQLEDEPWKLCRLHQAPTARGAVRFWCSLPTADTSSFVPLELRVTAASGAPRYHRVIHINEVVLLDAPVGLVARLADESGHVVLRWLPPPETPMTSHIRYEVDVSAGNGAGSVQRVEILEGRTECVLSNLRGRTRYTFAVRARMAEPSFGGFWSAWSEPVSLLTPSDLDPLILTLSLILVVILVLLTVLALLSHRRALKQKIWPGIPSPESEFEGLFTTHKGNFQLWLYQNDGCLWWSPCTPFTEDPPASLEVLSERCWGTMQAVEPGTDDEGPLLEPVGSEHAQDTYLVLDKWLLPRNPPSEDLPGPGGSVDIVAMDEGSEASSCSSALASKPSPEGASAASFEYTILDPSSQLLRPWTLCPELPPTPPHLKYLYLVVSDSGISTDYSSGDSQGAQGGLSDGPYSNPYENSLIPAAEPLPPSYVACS", "details": "cited from earlier work"}, "[6]": {"details": "in 50% serum; cited from earlier work"}, "[7]": {"details": "cited from earlier work"}, "[8]": {"details": "listed as EMP-Hinge core mimetibody"}}, "data": [{"substance": "EMP-hinge core mimetibody: V (QIQ)-EMP-1 peptide-GS or GGGS linker-hinge core CPPCP-CH2-CH3 of IgG1 or IgG4; assembled homodimer", "values": [{"measurement": "potency, fold less than rHuEPO", "setting": "[1]; UT-7/EPO cells, on a molar basis", "value": 5, "unit": "fold"}, {"measurement": "activity/potency, fold greater than the EMP-1 peptide", "setting": "[1]; UT-7/EPO cells", "value": "more than 500 fold"}, {"measurement": "activity/potency, fold greater than the EMP-1 peptide", "setting": "[1]; UT-7/EPO cells, listed as EMP-Hinge core mimetibody", "value": 500, "unit": "fold"}, {"measurement": "activity compared with rHuEPO", "setting": "[1]", "value": "substantially similar"}, {"measurement": "activity compared with rHuEPO", "setting": "[1]; [8]", "value": "in the range of rHuEPO"}, {"measurement": "change in hematocrit (in vivo expansion of erythroid progenitors)", "setting": "[2]; in vivo", "value": "significant increases in hematocrit"}, {"measurement": "duration of response (elevated hematocrit) compared with rHuEPO", "setting": "[2]", "value": "elevated levels are maintained for a longer period"}, {"measurement": "maximal hematocrit / maximal response compared with rHuEPO", "setting": "[2]", "value": "significantly higher"}, {"measurement": "duration of response (elevated hematocrit) compared with rHuEPO", "setting": "[2]; [8]", "value": "prolonged"}, {"measurement": "maximal hematocrit / maximal response compared with rHuEPO", "setting": "[2]; [8]", "value": "higher maximal response"}, {"measurement": "approximate half-life relative to rHuEPO", "setting": "[3]", "value": "at least several times"}, {"measurement": "effector function associated effects", "setting": "[4]", "value": "no effector function associated affects have been observed"}, {"measurement": "complement lysis of cells that express the EPO receptor", "setting": "[4]; preliminary studies", "value": "does not mediate complement lysis"}]}, {"substance": "GGTYSCHFGPLTWVCKPQGG [EMP-1]", "values": [{"measurement": "activity, fold less than HuEPO", "setting": "[5]", "value": "10,000 to 100,000 fold"}, {"measurement": "ex-vivo half-life", "setting": "[6]", "value": 8, "unit": "h"}]}, {"substance": "erythropoietin: glycoprotein hormone of 165 amino acids and four carbohydrate chains, primary regulator of erythropoiesis", "values": [{"measurement": "time at which peak serum levels are achieved", "setting": "[7]; after subcutaneous administration", "value": "5 to 24", "unit": "h"}, {"measurement": "circulating half-life", "setting": "[7]; intravenously administered, patients with CRF", "value": "3 to 4", "unit": "h"}, {"measurement": "detectable levels of plasma erythropoietin maintained", "setting": "[7]; within the therapeutic dose range", "value": "at least 24 hours"}]}]}
